The text below walks through data of PubChem BioAssay (NCI).

SMILES strings stand for the structures.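 48-hour exposure; five concentrations; linearly interpolated endpoints. TGI marks complete inhibition of growth.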

Test systems include 786-0 renal; A498 renal; A549 NSCLC; ACHN renal; BT-549 breast; EKVX NSCLC; K-562 leukemia; KM12 colon; MALME-3M melanoma; NCI-H226 lung; NCI-H460 lung; NCI/ADR-RES ovarian; OVCAR-8 ovarian; RXF 393 renal; SN12C renal; SNB-19 CNS; SNB-75 CNS; SW-620 colon; TK-10 renal.
Holding throughout (test): NCI tumour cell line growth inhibition, 48 h

For `CC(C)=CCC[C@@H](C)C1=C(O)C(O)C(C)=C2N=C(c3ccccc3)C(=O)OC21` (stereo partly drawn), the TGI was > 20.5 µM with 786-0 renal; > 13.1 µM in the assay on A498 renal; > 23 µM with A549 NSCLC; > 13.7 µM with ACHN renal; > 25 µM with BT-549 breast; > 25 µM in the assay with EKVX NSCLC. Moreover, the TGI with K-562 leukemia is > 25 µM; in the assay with KM12 colon it was > 18.3 µM; with MALME-3M melanoma, 15.4 µM; in the assay on NCI-H226 lung it was 6.94 µM; in the assay with NCI-H460 lung it was > 17 µM; with NCI/ADR-RES ovarian, 3.13 µM. In addition, the TGI in the assay on OVCAR-8 ovarian was > 11 µM; in the assay with RXF 393 renal, > 17.1 µM; in the assay on SN12C renal, > 25 µM; with SNB-19 CNS it was > 25 µM; with SNB-75 CNS, > 19.3 µM; in the assay with SW-620 colon, > 25 µM. Also, the TGI with TK-10 renal is > 25 µM.
As for `O=C(N/N=C/c1ccc2c(c1)OCO2)Nc1ccccc1Cl`, the TGI in the assay on 786-0 renal is > 55 µM; with A498 renal it was 35.6 µM; in the assay with A549 NSCLC, > 100 µM; in the assay on ACHN renal, > 100 µM; in the assay on BT-549 breast it was 75.7 µM; in the assay on EKVX NSCLC it was > 60.5 µM. For the same compound, the TGI in the assay with K-562 leukemia was > 100 µM; in the assay on KM12 colon, > 100 µM; in the assay with MALME-3M melanoma, 56.2 µM; in the assay on NCI-H226 lung, > 73.5 µM; with NCI-H460 lung, 16.6 µM; in the assay on NCI/ADR-RES ovarian, 2.4 µM. Moreover, the TGI in the assay on OVCAR-8 ovarian was > 43.1 µM; in the assay with RXF 393 renal, 12.2 µM; with SN12C renal it was > 46.7 µM; in the assay with SNB-19 CNS, > 79.3 µM; in the assay with SNB-75 CNS, 2.38 µM; in the assay on SW-620 colon, > 100 µM. For the same compound, the TGI with TK-10 renal was 21 µM.
For `Nc1nc(Cl)c(N)c(NCC2(CO)CCC2)n1`, the TGI in the assay on 786-0 renal, in the assay on A498 renal, in the assay on A549 NSCLC, in the assay with ACHN renal, in the assay on BT-549 breast and with EKVX NSCLC was > 100 µM in each case. Moreover, the TGI with K-562 leukemia, in the assay on KM12 colon, with MALME-3M melanoma, in the assay on NCI-H226 lung, in the assay with NCI-H460 lung and in the assay with NCI/ADR-RES ovarian was > 100 µM in each case. In addition, the TGI with OVCAR-8 ovarian, in the assay on RXF 393 renal, with SN12C renal, in the assay with SNB-19 CNS, in the assay on SNB-75 CNS and in the assay on SW-620 colon was > 100 µM each time. For the same compound, the TGI in the assay on TK-10 renal was > 100 µM.
Consider `CNc1c2cccc(C)c2nc2c(C(=O)NCCN(C)C)cccc12`, for which the TGI with 786-0 renal stood at 1.47 µM; in the assay on A498 renal, 0.935 µM; with A549 NSCLC, 0.331 µM; with ACHN renal, 0.723 µM; in the assay with BT-549 breast, 2.8 µM; in the assay on EKVX NSCLC it was 1.33 µM. Moreover, the TGI in the assay with K-562 leukemia is > 100 µM; in the assay with KM12 colon, 1.67 µM; in the assay with MALME-3M melanoma, 0.692 µM; with NCI-H226 lung it was 0.847 µM; in the assay on NCI-H460 lung, 0.206 µM; with NCI/ADR-RES ovarian, 1.83 µM. In addition, the TGI with OVCAR-8 ovarian was 0.297 µM; with RXF 393 renal, 0.413 µM; in the assay on SN12C renal it was 0.719 µM; in the assay on SNB-19 CNS, 0.876 µM; in the assay on SNB-75 CNS, 0.592 µM; with SW-620 colon, 0.424 µM. In the assay on TK-10 renal, this compound gave a TGI of 0.617 µM.
With `O=C(c1cc(Cl)cc(Cl)c1)N(C(=O)N1CCN(c2ccccc2)CC1)c1ccccc1`, the TGI with 786-0 renal, in the assay on A498 renal, in the assay on A549 NSCLC, in the assay with ACHN renal, with BT-549 breast and with EKVX NSCLC was > 100 µM throughout. Moreover, the TGI in the assay with K-562 leukemia, with KM12 colon, in the assay on MALME-3M melanoma, in the assay with NCI-H226 lung, in the assay with NCI-H460 lung and in the assay on NCI/ADR-RES ovarian was > 100 µM throughout. Moreover, the TGI in the assay on OVCAR-8 ovarian, in the assay on RXF 393 renal, with SN12C renal, in the assay with SNB-19 CNS, with SNB-75 CNS and in the assay with SW-620 colon was > 100 µM in each case. Besides, the TGI with TK-10 renal was > 100 µM.
For the compound `CN1C2CCC1CC(CCOC(c1ccc(F)cc1)c1ccc(F)cc1)C2` (stereo not drawn), the TGI in the assay with 786-0 renal stood at 30.7 µM; in the assay with A498 renal it was 36.1 µM; in the assay on A549 NSCLC, 35.7 µM; in the assay with ACHN renal it was 30.8 µM; in the assay with BT-549 breast, 31.1 µM; with EKVX NSCLC, 27.7 µM. Further, the TGI in the assay on K-562 leukemia stood at 35.8 µM; with KM12 colon it was 30.8 µM; with MALME-3M melanoma, 29.3 µM; with NCI-H226 lung it was 29.1 µM; with NCI-H460 lung it was 32.2 µM; in the assay on NCI/ADR-RES ovarian, 36.5 µM. The TGI in the assay with OVCAR-8 ovarian is 32.1 µM; in the assay with RXF 393 renal it was 22.6 µM; with SN12C renal, 38.2 µM; in the assay on SNB-19 CNS, 41.6 µM; with SNB-75 CNS it was 30.4 µM; in the assay on SW-620 colon it was 41.8 µM. Besides, the TGI with TK-10 renal turned out to be 28.8 µM.
Turning to `O=C(c1ccccc1)c1ccc2nc3n(c2c1)C(c1c(F)cccc1F)SC3` (stereo not drawn), the TGI was 47.8 µM in the assay with 786-0 renal; 13.5 µM with A498 renal; > 84.8 µM with A549 NSCLC; 24.8 µM with ACHN renal; > 100 µM with BT-549 breast; > 48.4 µM with EKVX NSCLC. The TGI in the assay with K-562 leukemia is > 100 µM; in the assay on KM12 colon it was 14.3 µM; in the assay on MALME-3M melanoma, 46.7 µM; in the assay with NCI-H226 lung, > 79.2 µM; in the assay with NCI-H460 lung it was 52.2 µM; in the assay with NCI/ADR-RES ovarian it was 26.5 µM. In addition, the TGI with OVCAR-8 ovarian was 98.4 µM; in the assay on RXF 393 renal, 72.8 µM; in the assay with SN12C renal, 34.8 µM; with SNB-19 CNS, > 100 µM; in the assay on SNB-75 CNS it was 29.4 µM; in the assay on SW-620 colon, > 100 µM. Further, the TGI with TK-10 renal was > 100 µM.
Turning to `Cc1cc([C@H](C#N)c2nc3ccccc3[nH]2)nc(Cl)n1`, the TGI in the assay on 786-0 renal, in the assay with A498 renal, with A549 NSCLC, in the assay with ACHN renal, in the assay with BT-549 breast and in the assay on EKVX NSCLC was > 100 µM throughout. The TGI in the assay with K-562 leukemia was > 100 µM; in the assay on KM12 colon it was 28.1 µM; in the assay with MALME-3M melanoma, > 100 µM; with NCI-H226 lung it was > 100 µM; with NCI-H460 lung, 63.5 µM; in the assay on NCI/ADR-RES ovarian it was > 100 µM. Besides, the TGI is > 100 µM in the assay on OVCAR-8 ovarian; > 100 µM in the assay on RXF 393 renal; > 100 µM in the assay with SN12C renal; > 100 µM in the assay on SNB-19 CNS; 93.4 µM in the assay with SNB-75 CNS; > 100 µM in the assay with SW-620 colon. The TGI in the assay with TK-10 renal was > 100 µM.
On to `CN1CCC2(CC1)SC[C@H]1C(=O)N(c3ccc(Cl)cc3)C(=O)N12`, for which the TGI with 786-0 renal was > 100 µM; with A498 renal, 86.3 µM; in the assay with A549 NSCLC, > 100 µM; in the assay with ACHN renal, > 100 µM; in the assay on BT-549 breast it was > 100 µM; with EKVX NSCLC, > 100 µM. Further, the TGI in the assay on K-562 leukemia, in the assay with KM12 colon, with MALME-3M melanoma, with NCI-H226 lung, in the assay with NCI-H460 lung and in the assay with NCI/ADR-RES ovarian was > 100 µM each time. The TGI with OVCAR-8 ovarian, in the assay on RXF 393 renal, in the assay with SN12C renal, with SNB-19 CNS, with SNB-75 CNS and in the assay on SW-620 colon was > 100 µM throughout. Moreover, the TGI in the assay on TK-10 renal was > 100 µM.
On to `O=c1[nH]c(C23CC4CC(CC(C4)C2)C3)cc2c1c(=O)oc1ccccc12`, for which the TGI in the assay on 786-0 renal worked out at 3.1 µM; with A498 renal it was 5.11 µM; in the assay on A549 NSCLC, 9.71 µM; in the assay on ACHN renal, 10.6 µM; with BT-549 breast, 38.2 µM; in the assay on EKVX NSCLC, 3.99 µM. The TGI with K-562 leukemia was > 35.8 µM; in the assay with KM12 colon, > 96 µM; in the assay on MALME-3M melanoma, 13.7 µM; with NCI-H226 lung, 5.75 µM; with NCI-H460 lung, 11.6 µM; with NCI/ADR-RES ovarian it was 18.9 µM. For the same compound, the TGI with OVCAR-8 ovarian is 15 µM; with RXF 393 renal, 7.71 µM; in the assay on SN12C renal it was 38.5 µM; with SNB-19 CNS it was 17.7 µM; in the assay on SNB-75 CNS it was 9.52 µM; with SW-620 colon, > 51.8 µM. The TGI in the assay on TK-10 renal was determined as 12.2 µM.
Take `CC1(C)CN=C(c2ccc3c(c2)Cc2cc(C4=NCC(C)(C)N4)ccc2-3)N1`: the TGI with 786-0 renal, with A498 renal, in the assay on A549 NSCLC, in the assay with ACHN renal, with BT-549 breast and in the assay on EKVX NSCLC was > 100 µM in each case. Moreover, the TGI with K-562 leukemia is 90.4 µM; in the assay with KM12 colon, > 100 µM; in the assay with MALME-3M melanoma it was 61.2 µM; in the assay on NCI-H226 lung it was > 100 µM; in the assay with NCI-H460 lung, > 100 µM; with NCI/ADR-RES ovarian, > 100 µM. For the same compound, the TGI in the assay on OVCAR-8 ovarian, with RXF 393 renal, with SN12C renal, with SNB-19 CNS, with SNB-75 CNS and with SW-620 colon was > 100 µM throughout. Also, in the assay on TK-10 renal, the TGI was > 100 µM.
Consider `Cc1c(C)c2c(c(N)c1C#N)C(=O)N(CCc1ccccc1)C2=O`, for which the TGI with 786-0 renal, in the assay with A498 renal, in the assay on A549 NSCLC, with ACHN renal, in the assay with BT-549 breast and with EKVX NSCLC was > 100 µM each time. Also, the TGI in the assay with K-562 leukemia, with KM12 colon, in the assay on MALME-3M melanoma, with NCI-H226 lung, with NCI-H460 lung and with NCI/ADR-RES ovarian was > 100 µM each time. Also, the TGI in the assay on OVCAR-8 ovarian, in the assay with RXF 393 renal, with SN12C renal, in the assay with SNB-19 CNS, in the assay with SNB-75 CNS and in the assay on SW-620 colon was > 100 µM in each case. Besides, the TGI in the assay on TK-10 renal was > 100 µM.
